Literature values in patent US12569183B2 (University Of Maryland, Baltimore, priority 2018, dated 2026).

What was measured:
[1] = administered twice daily, steady state on day 3
[2] = clinical trials; median baseline QTc 405 msec
[3] = rapid IV infusions; hypotension, dyspnea, QT prolongation

number of doses until steady-state exposures [1]: 4-5 doses
SMILES: CC(C)NCC(O)c1ccc(NS(C)(=O)=O)cc1 (stereo not drawn) [sotalol]
slope of the concentration QTc relationship [2]: 0.0158 ms/ng/mL
adverse events [3]: only mild to moderate adverse events
